Legend:
Format in all cases: in vivo
[1] = tested on: Rumex obtusifolius (broad-leaf dock); assay: Greenhouse postemergence herbicidal effect on RUMOB; conditions: Compound A 0, Bifenox 90 g/ha
Text: (§1) Greenhouse Trial Methodology—Evaluation of Postemergence Herbicidal Effect
(§2) Seeds of the desired test plant species were planted in a 90:10% v/v (volume/volume) mixture of PRO-MIX® BX (Premier Tech Horticulture, Quakertown, Pa., USA) and PROFILE® GREENS GRADE™ (Profile Products LLC, Buffalo Grove, Ill., USA) planting mixture, which typically has a pH of 5.2 to 6.2 and an organic matter content of at least 50 percent, in plastic pots with a surface area of 103.2 square centimeters (cm^2). In some aspects or embodiments, to help ensure good germination and healthy plants, a fungicide treatment and/or other chemical or physical treatment was applied. The plants were grown for 7-36 days (d) in a greenhouse with an approximate 14-hour (h) photoperiod which was maintained at about 23° C. during the day and 22° C. during the night. Nutrients and water were added on a regular basis and supplemental lighting was provided with overhead metal halide 1000-Watt lamps as necessary. The plants were employed for testing when they reached the second or third true leaf stage.
(§3) Emulsifiable concentrates of each of each pyridine carboxylate herbicide (Compound A or Compound B) were prepared at 100 grams acid equivalent per liter (g ae/L). The emulsifiable concentrates also included a safener, cloquintocet mexyl, at 120 grams active ingredient per liter (g ai/L). An aliquot of each emulsifiable concentrate was placed in a 25 mL glass vial and diluted with an aqueous mixture of 1.25% (v/v) ACTIROB® B esterified rapeseed oil (Bayer Crop Science, Research Triangle Park, N.C., USA) or MSO® Concentrate with LECI-TECH® methylated soybean oil (Loveland Products, Loveland, Colo., USA) to obtain concentrated stock solutions at the highest application rate for each herbicide, based upon a 12 milliliter (mL) application volume at a rate of 187 liters per hectare (L/ha). The concentrated stock solutions were further diluted with an aqueous mixture of 1.25% v/v ACTIROB® B or MSO® Concentrate with LECI-TECH® to obtain stock solutions at reduced application rates for each herbicide. Spray solutions of the herbicide combinations (Compound A or Compound B plus PROTOX inhibitor herbicide) were prepared by adding weighed amounts or aliquots of the PROTOX inhibitor herbicides to the stock solutions of Compound A or Compound B to form 12-mL spray solutions in two-way combinations.
(§4) The spray solutions were applied to the plant material with an overhead Mandel track sprayer equipped with 8002E nozzles calibrated to deliver 187 L/ha over an application area of 0.503 square meters (m^2) at a spray height of 18 inches (43 centimeters (cm)) above the average plant canopy. Control plants were sprayed in the same manner with the solvent blank. All pyridine carboxylate herbicide (component a) application rates are given as “g ae/ha” and all PROTOX inhibitor herbicide (component b) application rates are given as “g ai/ha.”
(§5) The treated plants and control plants were placed in a greenhouse as described above and watered by sub-irrigation to prevent wash-off of the test compounds. After 20-22 d, the condition of the test plants as compared with that of the control plants was determined visually and scored on a scale of 0 to 100 percent where 0 corresponds to no injury and 100 corresponds to complete kill.

[2] = tested on: Viola tricolor (wild pansy); assay: Greenhouse postemergence herbicidal effect on VIOTR
Text: as §1, §2, §3, §4, §5

[3] = tested on: Cirsium arvense (Canadian thistle); assay: Greenhouse postemergence herbicidal effect on CIRAR
Text: as §1, §2, §3, §4, §5

[4] = tested on: Brassica napus (spring rape); assay: Greenhouse postemergence herbicidal effect on BRSNN; conditions: Compound A 0, Bifenox 90 g/ha
Text: as §1, §2, §3, §4, §5

[5] = tested on: Setaria faberi (giant foxtail); assay: Greenhouse postemergence herbicidal effect on SETFA
Text: as §1, §2, §3, §4, §5

Kochia scoparia (kochia) = assay: Greenhouse postemergence herbicidal effect on KCHSC
Text: as §1, §2, §3, §4, §5

Avena fatua (wild oat) = assay: Greenhouse postemergence herbicidal effect on AVEFA; conditions: Compound A 0, Bifenox 90 g/ha
Text: as §1, §2
(§6) Emulsifiable concentrates of each of each pyridine carboxylate herbicide (Compound A or Compound B) were prepared at 100 grams acid equivalent per liter (g ae/L). The emulsifiable concentrates also included a safener, cloquintocet mexyl, at 120 grams active ingredient per liter (g ai/L). […]
as §5

[6] = tested on: Echinochloa crus-galli (barnyard grass); assay: Greenhouse postemergence herbicidal effect on ECHCG; conditions: Compound A 0, Bifenox 90 g/ha
Text: as §1, §2, §6, §5

[7] = tested on: Digitaria sanguinalis (large crabgrass); assay: Greenhouse postemergence herbicidal effect on DIGSA; conditions: Compound A 0, Bifenox 90 g/ha
Text: as §1, §2, §6, §5

[8] = tested on: Triticum aestivum (spring wheat); assay: Greenhouse postemergence phytotoxicity on crop TRZAS; conditions: Compound A 0, Carfentrazone-ethyl 5 g/ha
Text: as §1, §2, §3, §4, §5

[9] = tested on: Polygonum convolvulus (wild buckwheat); assay: Greenhouse postemergence herbicidal effect on POLCO; conditions: Compound A 0, Carfentrazone-ethyl 5 g/ha
Text: as §1, §2, §3, §4, §5

[10] = tested on: Salsola kali (Russian thistle); assay: Greenhouse postemergence herbicidal effect on SASKR; conditions: Compound A 0, Carfentrazone-ethyl 5 g/ha
Text: as §1, §2, §3, §4, §5

[11] = tested on: Hordeum vulgare (spring barley); assay: Greenhouse postemergence phytotoxicity on crop HORVS; conditions: Compound A 0, Carfentrazone-ethyl 5 g/ha
Text: as §1, §2, §3, §4, §5

[12] = Compound B 7.5, Saflufenacil 0 g/ha
[13] = Compound B 10, Saflufenacil 0 g/ha

COC(=O)c1cc(Oc2ccc(Cl)cc2Cl)ccc1[N+](=O)[O-] [Bifenox, methyl 5-(2,4-dichlorophenoxy)-2-nitrobenzoate, reference compound]
% visual injury, Obs [1]: 0%
% visual injury, Obs ([2]; Compound A 0, Bifenox 90 g/ha): 0%
% visual injury, Obs ([3]; Compound A 0, Bifenox 90 g/ha): 18%
% visual injury, Obs [4]: 23%
% visual injury, Obs ([5]; Compound A 0, Bifenox 90 g/ha): 18%
% visual injury, Obs (Kochia scoparia (kochia); Compound A 0, Bifenox 90 g/ha): 73%
% visual injury, Obs (Avena fatua (wild oat)): 5%
% visual injury, Obs [6]: 15%
% visual injury, Obs [7]: 25%

CCOC(=O)C(Cl)Cc1cc(-n2nc(C)n(C(F)F)c2=O)c(F)cc1Cl (stereo not drawn) [Carfentrazone-ethyl, ethyl α,2-dichloro-5-[4-(difluoromethyl)-4,5-dihydro-3-methyl-5-oxo-1H-1,2,4-triazol-1-yl]-4-fluorobenzenepropanoate, reference compound]
% visual injury, Obs (Kochia scoparia (kochia); Compound A 0, Carfentrazone-ethyl 5 g/ha): 20%
% visual injury, Obs [8]: 0%
% visual injury, Obs [9]: 5%
% visual injury, Obs [10]: 68%
% visual injury, Obs [11]: 8%

C#CCOC(=O)c1nc(-c2ccc3cc[nH]c3c2F)c(F)c(N)c1Cl [Compound B, propargyl 4-amino-3-chloro-5-fluoro-6-(7-fluoro-1H-indol-6-yl)pyridine-2-carboxylate]
% visual injury, Obs [2, 12]: 10%
% visual injury, Obs [2, 13]: 40%
% visual injury, Obs [3, 12]: 45%
% visual injury, Obs [3, 13]: 45%
% visual injury, Obs [5, 12]: 70%
% visual injury, Obs [5, 13]: 55%
